Assay results taken from patent US8017606B2, “Quinoline derivatives as antibacterial agents” (Janssen Pharmaceutica NV, priority 2005, dated 2011).
≈ marks a conversion by molar mass, not a printed value.

Experiments:
Test in all cases: Microtitre plate assay, IC90 determination
Assay type in all cases: cell-based
[1] = test system: Streptococcus mutans (ATCC33402); conditions: 90% inhibitory concentration for bacterial growth, 37° C., resazurin fluorescence, read-out: IC90 (μg/ml) SMU 33402
Experimental: (§1) The bacteria used in this study were grown overnight in flasks containing 100 ml Mueller-Hinton Broth (Becton Dickinson—cat. no. 275730) in sterile de-ionized water, with shaking, at 37° C. Stocks (0.5 ml/tube) were stored at −70° C. until use. Bacteria titrations were performed in microtiter plates and colony forming units (CFUs) were determined. In general, an inoculum level of approximately 100 CFUs was used for susceptibility testing.
(§2) Anti Bacterial Susceptibility Testing: IC90 Determination
(§3) Flat-bottom, sterile 96-well plastic microtiter plates were filled with 180 μl of sterile deionized water, supplemented with 0.25% BSA. Subsequently, stock solutions (7.8×final test concentration) of compounds were added in 45 μl volumes in column 2 Serial five-fold dilutions (45 μl in 180 μl) were made directly in the microtiter plates from column 2 to reach column 11. Untreated control samples with (column 1) and without (column 12) inoculum were included in each microtiter plate. Depending on the bacteria type, approximately 10 to 60 CFU per well of bacteria inoculum (100 TCID50), in a volume of 100 μl in 2.8× Mueller-Hinton broth medium, was added to the rows A to H, except column 12. The same volume of broth medium without inoculum was added to column 12 in row A to H. The cultures were incubated at 37° C. for 24 hours under a normal atmosphere (incubator with open air valve and continuous ventilation). At the end of incubation, one day after inoculation, the bacterial growth was quantitated fluorometrically. Therefore resazurin (0.6 mg/ml) was added in a volume of 20 μl to all wells […], and the plates were re-incubated overnight. A change in colour from blue to pink indicated the growth of bacteria.
(§4) The fluorescence was read in a computer-controlled fluorometer (Cytofluor Biosearch) at an excitation wavelength of 530 nm and an emission wavelength of 590 nm. The % growth inhibition achieved by the compounds was calculated according to standard methods. The IC90 (expressed in μg/ml) was defined as the 90% inhibitory concentration for bacterial growth.

[2] = test system: methicilline resistant Staphylococcus aureus (MRSA) (a clinical isolate from the University of Antwerp); conditions: 90% inhibitory concentration for bacterial growth, 37° C., resazurin fluorescence, read-out: IC90 (μg/ml) STA RMETHIC
Experimental: as §1, §2, §3, §4

[3] = test system: Enterococcus faecalis (ATCC29212); conditions: 90% inhibitory concentration for bacterial growth, 37° C., resazurin fluorescence, read-out: IC90 (μg/ml) EFA 29212
Experimental: as §1, §2, §3, §4

[4] = test system: Staphylococcus aureus (ATCC25923); conditions: 90% inhibitory concentration for bacterial growth, 37° C., resazurin fluorescence, read-out: IC90 (μg/ml) STA 25923
Experimental: as §1, §2, §3, §4

[5] = test system: Listeria monocytogenes (ATCC49594); conditions: 90% inhibitory concentration for bacterial growth, 37° C., resazurin fluorescence, read-out: IC90 (μg/ml) LMO 49594
Experimental: as §1, §2, §3, §4

[6] = test system: Escherichia coli (ATCC25922); conditions: 90% inhibitory concentration for bacterial growth, 37° C., resazurin fluorescence, read-out: IC90 (μg/ml) ECO 25922
Experimental: as §1, §2, §3, §4

[7] = test system: Staphylococcus aureus (ATCC29213); conditions: 90% inhibitory concentration for bacterial growth, 37° C., resazurin fluorescence, read-out: IC90 (μg/ml) STA 29213
Experimental: as §1, §2, §3, §4

[8] = test system: Pseudomonas aeruginosa (ATCC27853); conditions: 90% inhibitory concentration for bacterial growth, 37° C., resazurin fluorescence, read-out: IC90 (μg/ml) PAE 27853
Experimental: as §1, §2, §3, §4

[9] = test system: Streptococcus pyogens (ATCC8668); conditions: 90% inhibitory concentration for bacterial growth, 37° C., resazurin fluorescence, read-out: IC90 (μg/ml) SPY 8668
Experimental: as §1, §2, §3, §4

[10] = test system: Streptococcus pneumoniae (ATCC6305); conditions: 90% inhibitory concentration for bacterial growth, 37° C., resazurin fluorescence, read-out: IC90 (μg/ml) SPN 6305
Experimental: as §1, §2, §3, §4

[11] = test system: Bacillus subtilis (ATCC43639); conditions: 90% inhibitory concentration for bacterial growth, 37° C., resazurin fluorescence, read-out: IC90 (μg/ml) BSU 43639
Experimental: as §1, §2, §3, §4

[12] = test system: Enterococcus faecalis (ATCC14506); conditions: 90% inhibitory concentration for bacterial growth, 37° C., resazurin fluorescence, read-out: IC90 (μg/ml) EFA 14506
Experimental: as §1, §2, §3, §4

[13] = test system: Escherichia coli (ATCC35218); conditions: 90% inhibitory concentration for bacterial growth, 37° C., resazurin fluorescence, read-out: IC90 (μg/ml) ECO 35218
Experimental: as §1, §2, §3, §4

[14] = test system: Staphylococcus aureus (ATCC43300); conditions: 90% inhibitory concentration for bacterial growth, 37° C., resazurin fluorescence, read-out: IC90 (μg/ml) STA 43300
Experimental: as §1, §2, §3, §4

[15] = test system: Escherichia coli (ATCC1403); conditions: 90% inhibitory concentration for bacterial growth, 37° C., resazurin fluorescence, read-out: IC90 (μg/ml) ECO 1403
Experimental: as §1, §2, §3, §4

| IC90 [1] | IC90 [3] | IC90 [4] | IC90 [5] | IC90 [6] | IC90 [7] | IC90 [8] | IC90 [9] | IC90 [10] | IC90 [11] | IC90 [12] | IC90 [13] | IC90 [14] | IC90 [15] | Structure (SMILES) | IC90 [2] |
| --- | --- | --- | --- | --- | --- | --- | --- | --- | --- | --- | --- | --- | --- | --- | --- |
| 44.7 µg/mL (≈ 79.5 µM) | 56.3 µg/mL (≈ 100 µM) | 56.3 µg/mL (≈ 100 µM) | 56.3 µg/mL (≈ 100 µM) | 56.3 µg/mL (≈ 100 µM) | 44.7 µg/mL (≈ 79.5 µM) | 56.3 µg/mL (≈ 100 µM) | 22.4 µg/mL (≈ 39.8 µM) | 56.3 µg/mL (≈ 100 µM) | 56.3 µg/mL (≈ 100 µM) |  |  |  |  | CN(C)CCOc1nc2c(C(O)(CCN(C)C)c3ccccc3)cc(Br)cc2cc1Cc1ccccc1 (stereo not shown) [Compound 49] | 56.3 µg/mL (≈ 100 µM) |
| 15.3 µg/mL (≈ 22.3 µM) | 17.2 µg/mL (≈ 25.1 µM) | 54.4 µg/mL (≈ 79.4 µM) | 10.9 µg/mL (≈ 15.9 µM) |  | 15.3 µg/mL (≈ 22.3 µM) | 17.2 µg/mL (≈ 25.1 µM) | 15.3 µg/mL (≈ 22.3 µM) | 17.2 µg/mL (≈ 25.1 µM) | 10.9 µg/mL (≈ 15.9 µM) | 54.4 µg/mL (≈ 79.4 µM) | 15.3 µg/mL (≈ 22.3 µM) | 17.2 µg/mL (≈ 25.1 µM) |  | CN(C)CCC(O)(c1ccccc1)c1cc(Br)cc2cc(Cc3ccccc3)c(NCCC(c3ccccc3)c3ccccc3)nc12 (stereo not shown) [Compound 59] | 54.4 µg/mL (≈ 79.4 µM) |
| 14.6 µg/mL (≈ 25.2 µM) | 14.6 µg/mL (≈ 25.2 µM) | 13 µg/mL (≈ 22.4 µM) | 14.6 µg/mL (≈ 25.2 µM) | 14.6 µg/mL (≈ 25.2 µM) | 11.6 µg/mL (≈ 20 µM) | 14.6 µg/mL (≈ 25.2 µM) | 11.6 µg/mL (≈ 20 µM) | 14.6 µg/mL (≈ 25.2 µM) | 14.6 µg/mL (≈ 25.2 µM) |  | 11.6 µg/mL (≈ 20 µM) |  | 13 µg/mL (≈ 22.4 µM) | CN(C)CCC(O)(c1cccs1)c1cc(Br)cc2cc(Cc3ccccc3)c(N3CCN(C)CC3)nc12 (stereo not shown) [Compound 20] | 46 µg/mL (≈ 79.4 µM) |
